{
  "source": "patent US20250154112A1",
  "about": "“A PREPARATION OF QUINAZOLINEDIONES AND USE THEREOF” (COUNCIL OF SCIENTIFIC AND INDUSTRIAL RESEARCH AN INDIAN …, priority 2021, published 2025)",
  "key": {"ATGL [1]": {"tested_on": "ATGL", "assay": "Western blot of ATGL level in primary mouse hepatocytes", "assay_type": "cell-based", "conditions": "10 nM to 500 nM, 24 hours, with respect to control", "procedure": "To further strengthen the efficiency of the compound 62, primary hepatocytes were isolated from mice and these compounds were treated in a dose dependent manner for 24 hours. Primary hepatocytes and adipose tissue explants were isolated from mice and subjected to compound treatment for 24 hours at the doses of 10 nM, 20 nM, 50 nM, 100 nM and 500 nM. Post cell harvesting, western blot was carried out with the lysate to check the ATGL level. ATGL and COP1 antibodies were used. Actin served the purpose of a loading control.\nHepatocytes-2-4 months old chow-fed black male mouse (C57b1/6) was sacrificed using chloroform (SRL) and was cleaned with 70% ethanol. […] Blood was drawn from the heart in order to prevent backflow into liver while perfusion. The butterfly cannula was inserted into the PV and 20 ml of HBSS (Hank's Balanced Salt Solution; 5 mM KCl, 0.4 mM KH2PO4, 4 mM NaHCO3, 140 mM NaCl, 0.3 mM Na2HPO4, 6 mM Glucose, HEPES, 0.5 mM MgCl2.6H2O, 0.4 mM MgSO4·7H2O, 0.5 mM EDTA; not containing 1 mM CaCl2)) was allowed to pass through the liver (Perfusion) at a constant flow rate of 3 ml/min, maintained by Masterflex digital peristaltic pump (Cole-Parmer). The IVC was cut as soon as the passage of the buffer through the liver began, so that blood and perfusate from liver was drained through the IVC. The liver blanched and became pale in color upon this treatment. […]"}, "ATGL [2]": {"tested_on": "ATGL", "assay": "In vivo study, Western blot of ATGL in mice liver and adipose tissue", "set-up": "species or system C57BL/6 mice", "conditions": "80 mg/kg orally, 9 days", "procedure": "(§1) 6-8 weeks old healthy male C57BL/6 mice (average weight: 28 grams) were taken for the study. These were then divided into two groups comprising of three mice per group (Control, compound 62). Mice were fed with 80 mg/kg of compound 62 orally. The compound was dissolved in 10% EtOH, 40% PEG, 20% PG, 30% NaCl solution (0.9%). The control group was fed only with the solvent in which the compound was dissolved. Post 9 days of one-time feeding mice were sacrificed and a portion of the excised liver tissue and adipose was homogenized in lysis buffer containing protease inhibitor cocktail. The homogenate was centrifuged at 20,000 g for 30 minutes following which the supernatant containing the protein lysate was collected. The lysate was then diluted accordingly, and protein estimation was carried out by Bradford Assay. This was followed by Western Blotting wherein the levels of ATGL and COP1 were checked. Actin was used as the loading control."}, "COP1": {"molecular_target": "T1, COP1 (Mus musculus, UniProt Q9R1A8)", "T1 construct": "from tissue; host or cells: liver and adipose tissue of C57BL/6 mice", "T1 sequence (Q9R1A8 whole entry)": "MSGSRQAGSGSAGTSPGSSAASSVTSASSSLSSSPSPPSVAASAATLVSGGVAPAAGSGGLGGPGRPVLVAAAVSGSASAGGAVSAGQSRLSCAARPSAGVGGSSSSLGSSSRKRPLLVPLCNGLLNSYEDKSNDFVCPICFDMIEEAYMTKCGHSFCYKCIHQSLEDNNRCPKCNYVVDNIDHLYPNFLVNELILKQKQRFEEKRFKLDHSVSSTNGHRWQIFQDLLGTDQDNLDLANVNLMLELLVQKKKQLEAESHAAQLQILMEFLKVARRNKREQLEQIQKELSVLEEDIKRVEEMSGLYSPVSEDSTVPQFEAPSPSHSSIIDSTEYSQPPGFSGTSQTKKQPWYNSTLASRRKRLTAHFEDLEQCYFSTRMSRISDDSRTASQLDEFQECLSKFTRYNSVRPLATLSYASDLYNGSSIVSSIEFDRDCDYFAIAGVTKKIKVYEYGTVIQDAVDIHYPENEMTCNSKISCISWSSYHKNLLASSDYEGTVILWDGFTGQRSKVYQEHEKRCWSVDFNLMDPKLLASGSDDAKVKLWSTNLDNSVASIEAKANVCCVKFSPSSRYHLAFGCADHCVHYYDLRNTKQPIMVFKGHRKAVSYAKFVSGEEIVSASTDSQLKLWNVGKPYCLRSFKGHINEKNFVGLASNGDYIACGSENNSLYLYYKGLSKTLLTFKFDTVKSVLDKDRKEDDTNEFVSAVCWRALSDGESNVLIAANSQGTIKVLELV", "assay": "In vivo study, Western blot of COP1 in mice liver and adipose tissue", "set-up": "species or system C57BL/6 mice", "conditions": "80 mg/kg orally, 9 days", "procedure": "as §1"}, "[3]": {"tested_on": "C57BL/6 mice fed with high fat diet (HFD)", "assay": "HFD induced fatty liver disease model", "assay_type": "in vivo", "conditions": "HFD 12 weeks, 80 mg/kg orally for the last 4 weeks", "procedure": "A preclinical therapeutic model was developed where C57BL/6 mice were fed with 60% kcal high fat diet (HFD) for 12 weeks, and for the last 4 weeks the mice were orally fed with the compound 62 at 80 mg/kg body weight dose."}, "[4]": {"assay": "Determination of EC50 (in-vitro)"}},
  "data": [
    {"smiles": "COCCn1c(=O)c2cc(NC(=O)Nc3cccc(C(C)=O)c3)ccc2n(CCN2CCCCC2)c1=O", "note": "[Compound 62, 1-(3-acetylphenyl)-3-(3-(2-methoxyethyl)-2,4-dioxo-1-(2-(piperidin-1-yl)ethyl)-1,2,3,4-tetrahydroquinazolin-6-yl)urea]", "values": [
      {"measurement": "ATGL level (Western Blot)", "setting": "ATGL [1]", "value": "increased ATGL level"},
      {"measurement": "ATGL levels in liver and adipose lysates", "setting": "ATGL [2]", "value": "effective in increasing ATGL and COP1 levels"},
      {"measurement": "COP1 levels in liver and adipose lysates", "setting": "COP1", "value": "effective in increasing ATGL and COP1 levels"},
      {"measurement": "body weight", "setting": "[3]", "value": "Reductions"},
      {"measurement": "hepatic fibrogenesis", "setting": "[3]", "value": "improvement in hepatic fibrogenesis"},
      {"measurement": "hepatic lipid droplets (FIG. 7A)", "setting": "[3]", "value": "considerable depletion of hepatic lipid droplets"},
      {"measurement": "liver triglyceride content", "setting": "[3]", "value": "Reductions"},
      {"measurement": "serum cholesterol level", "setting": "[3]", "value": "Reductions"},
      {"measurement": "total liver weight", "setting": "[3]", "value": "Reductions"},
      {"measurement": "EC50", "setting": "[4]", "value": 45.7, "unit": "nM"}
    ]}
  ]
}
